Data taken from ChEMBL document CHEMBL1123274, “Azasteroids: structure-activity relationships for inhibition of 5 alpha-reductase and of androgen receptor binding” (J Med Chem, 1986).

Target: T1, Androgen receptor (Rattus norvegicus, UniProt P15207)
T1 sequence (P15207 whole entry): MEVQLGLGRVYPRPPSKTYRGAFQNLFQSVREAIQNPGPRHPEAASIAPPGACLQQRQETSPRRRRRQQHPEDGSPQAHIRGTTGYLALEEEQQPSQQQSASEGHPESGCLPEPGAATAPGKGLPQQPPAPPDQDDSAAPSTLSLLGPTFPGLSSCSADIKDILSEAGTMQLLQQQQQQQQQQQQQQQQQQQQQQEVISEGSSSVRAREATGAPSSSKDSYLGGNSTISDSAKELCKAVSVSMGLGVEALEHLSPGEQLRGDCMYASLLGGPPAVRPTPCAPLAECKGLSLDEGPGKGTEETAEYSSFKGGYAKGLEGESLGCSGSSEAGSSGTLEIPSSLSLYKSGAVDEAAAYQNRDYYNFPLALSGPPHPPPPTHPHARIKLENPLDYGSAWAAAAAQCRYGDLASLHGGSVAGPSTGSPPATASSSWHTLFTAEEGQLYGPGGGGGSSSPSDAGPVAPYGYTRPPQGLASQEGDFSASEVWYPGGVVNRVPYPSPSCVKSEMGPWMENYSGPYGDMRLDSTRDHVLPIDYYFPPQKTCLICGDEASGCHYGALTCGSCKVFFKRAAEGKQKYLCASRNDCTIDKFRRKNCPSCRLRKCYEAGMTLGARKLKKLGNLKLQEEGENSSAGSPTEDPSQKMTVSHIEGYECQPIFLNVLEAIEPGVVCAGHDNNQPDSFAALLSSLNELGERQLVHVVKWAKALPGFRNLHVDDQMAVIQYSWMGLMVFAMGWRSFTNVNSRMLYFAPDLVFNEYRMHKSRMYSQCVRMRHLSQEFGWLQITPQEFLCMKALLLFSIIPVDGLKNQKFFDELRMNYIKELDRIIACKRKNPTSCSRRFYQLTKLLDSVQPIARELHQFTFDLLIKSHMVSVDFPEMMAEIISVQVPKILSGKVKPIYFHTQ
Test: In vitro antagonist activity against rat prostatic androgen receptor (AR)

Row | IC50 | SMILES
1 | 130 nM | CCCCCCCCNC(=O)[C@H]1CC[C@H]2[C@@H]3CCC4N(C)C(=O)CC[C@]4(C)[C@H]3CC[C@]12C (some centres undefined)
2 | 2700 nM | CCN(CC)C(=O)[C@H]1CC[C@H]2[C@@H]3CC[C@H]4N(C)C(=O)[C@@H]5C[C@@H]5[C@]4(C)[C@H]3CC[C@]12C
3 | 250 nM | CCCCCNC(=O)[C@H]1CC[C@H]2[C@@H]3CCC4N(C)C(=O)CC[C@]4(C)[C@H]3CC[C@]12C (some centres undefined)
4 | > 10000 nM | CCN(CC)C(=O)[C@H]1CC[C@H]2[C@@H]3CC[C@H]4N(C)C(=O)C[C@H](C#N)[C@]4(C)[C@H]3CC[C@]12C
5 | 580 nM | CN1C(=O)CC[C@@]2(C)C1CC[C@H]1[C@@H]3CC[C@H](C(=O)C=[N+]=[N-])[C@@]3(C)CC[C@@H]12 (some centres undefined)
6 | 10000 nM | CN1C(=O)CC[C@@]2(C)C1CC[C@H]1[C@@H]3CC[C@H](C(=O)N4CCOCC4)[C@@]3(C)CC[C@@H]12 (some centres undefined)
7 | 83 nM | CCNC(=O)[C@H]1CC[C@H]2[C@@H]3CC[C@H]4N(C)C(=O)C=C[C@]4(C)[C@H]3CC[C@]12C
8 | 150 nM | CN1C(=O)C=C[C@@]2(C)C1CC[C@H]1[C@@H]3CC[C@H](C(=O)NC(C)(C)C)[C@@]3(C)CC[C@@H]12 (some centres undefined)
9 | 860 nM | CC(CO)[C@H]1CC[C@H]2[C@@H]3CCC4N(C)C(=O)CC[C@]4(C)[C@H]3CC[C@]12C (some centres undefined)
10 | > 10000 nM | CCNC(=O)[C@H]1CC[C@H]2[C@@H]3CC[C@H]4NC(=O)C=C[C@]4(C)[C@H]3CC[C@]12C
11 | 340 nM | CCCCCCCCNC(=O)[C@H]1CC[C@H]2[C@@H]3CCC4N(C)C(=O)C=C[C@]4(C)[C@H]3CC[C@]12C (some centres undefined)
12 | > 10000 nM | CCN(CC)C(=O)[C@H]1CC[C@H]2[C@@H]3CC[C@H]4N(C)C(=O)[C@@H](OC)C[C@]4(C)[C@H]3CC[C@]12C
13 | 32000 nM | CCN(CC)C(=O)[C@H]1CC[C@H]2[C@@H]3CC[C@H]4N(CC)C(=O)CC[C@]4(C)[C@H]3CC[C@]12C
14 | 7100 nM | CCN(CC)C(=O)[C@H]1CCC[C@H]2[C@@H]3CC[C@H]4N(C)C(=O)CC[C@]4(C)[C@H]3CC[C@]12C
15 | > 10000 nM | CCN(CC)C(=O)[C@H]1CC[C@H]2[C@@H]3CC[C@H]4NC(=O)CCC[C@]4(C)[C@H]3CC[C@]12C
16 | > 100000 nM | CC(C)CC(=O)[C@H]1CC[C@H]2[C@@H]3CCC4NC(=O)CC[C@]4(C)[C@H]3CC[C@]12C (some centres undefined)
17 | > 10000 nM | CCN(CC)C(=O)[C@H]1CC[C@H]2[C@@H]3CC[C@H]4N(C)C(=O)[C@H](OC)C[C@]4(C)[C@H]3CC[C@]12C
18 | 940 nM | CN1C(=O)CC[C@@]2(C)C1CC[C@H]1[C@@H]3CC[C@H](C(=O)NC(C)(C)CO)[C@@]3(C)CC[C@@H]12 (some centres undefined)
19 | > 100000 nM | C[C@]12CC[C@H]3[C@@H](CCC4NC(=O)CC[C@@]43C)[C@@H]1CC[C@@H]2C(N)=O (some centres undefined)
20 | 1800 nM | CCN(CC)C(=O)[C@H]1CC[C@H]2[C@@H]3CC[C@H]4N(C)C(=O)[C@@H](F)C[C@]4(C)[C@H]3CC[C@]12C
21 | 710 nM | CCN(CC)C(=O)[C@H]1CC[C@H]2[C@@H]3CC[C@H]4N(C)C(=O)[C@@H]5O[C@@H]5[C@]4(C)[C@H]3CC[C@]12C

More lines, now with the values behind:

Row | SMILES | IC50
22 | COC(=O)C(C)[C@H]1CC[C@H]2[C@@H]3CCC4N(C)C(=O)C=C[C@]4(C)[C@H]3CC[C@]12C (some centres undefined) | 270 nM
23 | CCN(CC)C(=O)[C@H]1CC[C@H]2[C@@H]3CC[C@H]4N(C)C(=O)CCC[C@]4(C)[C@H]3CC[C@]12C | 600 nM
24 | CCN(CC)C(=O)[C@H]1CCC[C@H]2[C@@H]3CC[C@H]4N(C)C(=O)NC[C@]4(C)[C@H]3CC[C@]12C | 1600 nM
25 | CN1C(=O)C=C[C@]2(C)[C@H]3CC[C@]4(C)[C@@H](O)CC[C@H]4[C@@H]3CC[C@@H]12 | 2.4 nM
26 | COC(=O)[C@H]1CC[C@H]2[C@@H]3CC[C@H]4N(C)C(=O)C=C[C@]4(C)[C@H]3CC[C@]12C | 13 nM
27 | CN1C(=O)C=C[C@]2(C)[C@H]3CC[C@]4(C)[C@@H](C(N)=O)CC[C@H]4[C@@H]3CC[C@@H]12 | 150 nM
28 | CC(C)N(C(=O)[C@H]1CC[C@H]2[C@@H]3CC=C4N(C)C(=O)CC[C@]4(C)[C@H]3CC[C@]12C)C(C)C | 10000 nM
29 | C[C@]12C=CC(=O)N[C@@H]1CC[C@@H]1[C@@H]2CC[C@]2(C)[C@@H](O)CC[C@@H]12 | 170 nM
30 | CN1C(=O)CC[C@H]2C1CC[C@@H]1[C@@H]2CC[C@@]2(C)[C@H]1CC[C@@]21CCCO1 (some centres undefined) | 2000 nM
31 | CC(C)(C)CC(C)(C)NC(=O)[C@H]1CC[C@H]2[C@@H]3CCC4NC(=O)C=C[C@]4(C)[C@H]3CC[C@]12C (some centres undefined) | > 100000 nM
32 | CC(C)N(C(=O)[C@H]1CC[C@H]2[C@@H]3CC=C4N(C)C(=O)C=C[C@]4(C)[C@H]3CC[C@]12C)C(C)C | 6400 nM
33 | C[C@]12CC[C@H]3[C@@H](CCC4NC(=O)C=C[C@@]43C)[C@@H]1CC[C@@H]2C(=O)c1ccc[nH]1 (some centres undefined) | 8000 nM
34 | C[C@]12CC[C@H]3[C@@H](CCC4NC(=O)CC[C@@]43C)[C@@H]1CC[C@@H]2C(=O)c1ccc[nH]1 (some centres undefined) | 15000 nM
35 | CN1C(=O)CC[C@@]2(C)C1=CC[C@H]1[C@@H]3CC[C@H](O)[C@@]3(C)CC[C@@H]12 | 7.4 nM
36 | CC(C(=O)O)[C@H]1CC[C@H]2[C@@H]3CCC4NC(=O)C=C[C@]4(C)[C@H]3CC[C@]12C (some centres undefined) | > 100000 nM
37 | CN1C(=O)C=C[C@@]2(C)C1CC[C@H]1[C@@H]3CC[C@H](C(=O)Sc4ccccn4)[C@@]3(C)CC[C@@H]12 (some centres undefined) | 100 nM
38 | CC(C)CC(=O)[C@H]1CC[C@H]2[C@@H]3CCC4NC(=O)C=C[C@]4(C)[C@H]3CC[C@]12C (some centres undefined) | > 100000 nM
39 | CC(C(=O)O)[C@H]1CC[C@H]2[C@@H]3CCC4N(C)C(=O)C=C[C@]4(C)[C@H]3CC[C@]12C (some centres undefined) | > 100000 nM
40 | CC(=O)[C@H]1CC[C@H]2[C@@H]3CCC4=CC(=O)CC[C@]4(C)[C@H]3[C@H](O)C[C@]12C | 330 nM
41 | CN1C(=O)CC[C@H]2C1=CC[C@@H]1[C@@H]2CC[C@@]2(C)[C@H]1CC[C@@]21CCCO1 (stereo in doubt; 74) | 240 nM
42 | CO[C@H]1CC(=O)NC2CC[C@H]3[C@@H]4CC[C@H](C(N)=O)[C@@]4(C)CC[C@@H]3[C@]21C (some centres undefined) | > 100000 nM
43 | C[C@]12C=CC(=O)N[C@@H]1CC[C@@H]1[C@@H]2CC[C@]2(C)[C@@H](C(N)=O)CC[C@@H]12 | > 10000 nM
44 | CN1C(=O)CC[C@H]2C1=CC[C@@H]1[C@@H]2CC[C@@]2(C)[C@H]1CC[C@@]21CCCO1 (stereo in doubt; 75) | 150 nM
45 | CN1C(=O)CC[C@@]2(C)C1CC[C@H]1[C@@H]3CC[C@H](C(=O)c4ccc[nH]4)[C@@]3(C)CC[C@@H]12 (some centres undefined) | 89 nM
46 | C[C@]12CC[C@H]3[C@@H](CCC4NC(=O)C=C[C@@]43C)[C@@H]1CC[C@@H]2C(=O)Sc1ccccn1 (some centres undefined) | > 10000 nM
47 | COC(=O)C(C)[C@H]1CC[C@H]2[C@@H]3CCC4NC(=O)C=C[C@]4(C)[C@H]3CC[C@]12C (some centres undefined) | > 100000 nM
48 | CN1C(=O)C=C[C@@]2(C)C1CC[C@H]1[C@@H]3CC[C@H](C(=O)c4ccc[nH]4)[C@@]3(C)CC[C@@H]12 (some centres undefined) | 15 nM
49 | COC(=O)[C@H]1CC[C@H]2[C@@H]3CC[C@H]4NC(=O)C=C[C@]4(C)[C@H]3CC[C@]12C | 3200 nM
50 | CC(C(=O)O)[C@H]1CC[C@H]2[C@@H]3CCC4NC(=O)CC[C@]4(C)[C@H]3CC[C@]12C (some centres undefined) | > 100000 nM

Target: T2, Steroid 5-alpha-reductase (Rattus norvegicus, UniProt P24008+P31214)
T2 sequence (P24008 whole entry): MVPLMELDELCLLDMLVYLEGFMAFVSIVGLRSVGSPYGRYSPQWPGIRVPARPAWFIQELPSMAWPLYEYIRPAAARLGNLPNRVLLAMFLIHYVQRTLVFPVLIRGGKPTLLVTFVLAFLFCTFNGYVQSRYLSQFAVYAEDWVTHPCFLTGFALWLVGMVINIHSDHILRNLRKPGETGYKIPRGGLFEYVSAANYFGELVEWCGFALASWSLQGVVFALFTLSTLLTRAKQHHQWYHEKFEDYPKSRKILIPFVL
T2 sequence (P31214 whole entry): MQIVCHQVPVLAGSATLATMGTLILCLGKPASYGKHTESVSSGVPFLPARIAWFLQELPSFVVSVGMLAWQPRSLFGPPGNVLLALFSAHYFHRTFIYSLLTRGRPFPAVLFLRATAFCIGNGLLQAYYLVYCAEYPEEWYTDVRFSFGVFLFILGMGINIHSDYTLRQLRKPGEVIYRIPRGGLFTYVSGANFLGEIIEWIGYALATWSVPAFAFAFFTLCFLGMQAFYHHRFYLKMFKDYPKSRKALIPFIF
Test: In vitro inhibitory activity against rat prostatic steroid 5-alpha-reductase
Assay type: protein assay

Row | IC50 | Ki app | SMILES
51 | 0.21 nM |  | CCCCCCCCNC(=O)[C@H]1CC[C@H]2[C@@H]3CCC4N(C)C(=O)CC[C@]4(C)[C@H]3CC[C@]12C (some centres undefined)
52 | 20 nM |  | CCN(CC)C(=O)[C@H]1CC[C@H]2[C@@H]3CC[C@H]4N(C)C(=O)[C@@H]5C[C@@H]5[C@]4(C)[C@H]3CC[C@]12C
53 | > 1000 nM |  | CCN(CC)C(=O)[C@H]1CC[C@H]2[C@@H]3CC[C@H]4N(C)C(=O)C[C@H](C#N)[C@]4(C)[C@H]3CC[C@]12C
54 | 27 nM |  | CN1C(=O)CC[C@@]2(C)C1CC[C@H]1[C@@H]3CC[C@H](C(=O)N4CCOCC4)[C@@]3(C)CC[C@@H]12 (some centres undefined)
55 | 13 nM |  | CN1C(=O)C=C[C@@]2(C)C1CC[C@H]1[C@@H]3CC[C@H](C(=O)NC(C)(C)C)[C@@]3(C)CC[C@@H]12 (some centres undefined)
56 | 3.8 nM |  | CC(CO)[C@H]1CC[C@H]2[C@@H]3CCC4N(C)C(=O)CC[C@]4(C)[C@H]3CC[C@]12C (some centres undefined)
57 |  | 133 nM | COC(=O)[C@H]1CC[C@H]2[C@@H]3CCC4NC(=O)CC[C@]4(C)[C@H]3CC[C@]12C (some centres undefined)

More lines, now with the values behind:

Row | SMILES | IC50 | Ki app
58 | CCN(CC)C(=O)[C@H]1CCC[C@H]2[C@@H]3CC[C@H]4N(C)C(=O)NC[C@]4(C)[C@H]3CC[C@]12C | 500 nM | 
59 | CC(C)(C)NC(=O)[C@H]1CC[C@H]2[C@@H]3CC[C@H]4NC(=O)C=C[C@]4(C)[C@H]3CC[C@]12C [FINASTERIDE] | 6.8 nM | 
